Where “and” joins values, the source holds several entries; their conditions need not be identical. Identical values can stand only once.
Test system: BDF1 mice, Adenocarcinoma 755 s.c., tumor weight T/C
Assay: NCI In Vivo Anticancer Drug Screen. Data for tumor model Adenocarcinoma 755 (subcutaneous) in B6D2F1 (BDF1) mice
Conditions: endpoint: mean tumor weight, higher = larger tumour
How it was run: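 Compound activity was tested in mice carrying transplanted tumors. Survival or tumor size was measured, and each value is the treated-group measurement divided by that of the vehicle-treated control group (T/C).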

[1] = dose: 1.0 mg/kg/injection, schedule: Q01DX011 (ip), vehicle: methylcellulose (MC)
[2] = dose: 1.5 mg/kg/injection, schedule: Q01DX011 (ip), vehicle: methylcellulose (MC)
[3] = dose: 3.0 mg/kg/injection, schedule: Q01DX011 (ip), vehicle: methylcellulose (MC)
[4] = dose: 6.0 mg/kg/injection, schedule: Q01DX011 (ip), vehicle: methylcellulose (MC)
[5] = dose: 225.0 mg/kg/injection, schedule: Q01DX011 (ip), vehicle: methylcellulose (MC)
[6] = dose: 15.0 mg/kg/injection, schedule: Q01DX011 (ip), vehicle: carboxymethylcellulose (CMC)
[7] = dose: 30.0 mg/kg/injection, schedule: Q01DX011 (ip), vehicle: carboxymethylcellulose (CMC)
[8] = dose: 120.0 mg/kg/injection, schedule: Q01DX011 (ip), vehicle: carboxymethylcellulose (CMC)
[9] = dose: 240.0 mg/kg/injection, schedule: Q01DX011 (ip), vehicle: carboxymethylcellulose (CMC)

## NC(Cc1ccc(N(CCCl)CCCl)cc1)C(=O)O (stereo unspecified)
dose: 0.32 mg/kg/injection, schedule: Q01DX011 (ip), vehicle: carboxymethylcellulose (CMC)
  T/C: 58 % of control
dose: 0.62 mg/kg/injection, schedule: Q01DX011 (ip), vehicle: carboxymethylcellulose (CMC)
  T/C: 87 % of control and 66 % of control
dose: 0.64 mg/kg/injection, schedule: Q01DX011 (ip), vehicle: carboxymethylcellulose (CMC)
  T/C: 32 % of control
dose: 0.83 mg/kg/injection, schedule: Q01DX011 (ip), vehicle: carboxymethylcellulose (CMC)
  T/C: 46 % of control
[1]
  T/C: 82 % of control
dose: 1.28 mg/kg/injection, schedule: Q01DX011 (ip), vehicle: carboxymethylcellulose (CMC)
  T/C: 23 % of control
dose: 1.38 mg/kg/injection, schedule: Q01DX011 (ip), vehicle: carboxymethylcellulose (CMC)
  T/C: 20 % of control
[2]
  T/C: 26 % of control
dose: 1.67 mg/kg/injection, schedule: Q01DX011 (ip), vehicle: carboxymethylcellulose (CMC)
  T/C: 39 % of control
dose: 1.73 mg/kg/injection, schedule: Q01DX011 (ip), vehicle: carboxymethylcellulose (CMC)
  T/C: 19 % of control
dose: 2.0 mg/kg/injection, schedule: Q01DX011 (ip), vehicle: methylcellulose (MC)
  T/C: 30 % of control
dose: 2.3 mg/kg/injection, schedule: Q01DX011 (ip), vehicle: carboxymethylcellulose (CMC)
  T/C: 23 % of control
dose: 2.56 mg/kg/injection, schedule: Q01DX011 (ip), vehicle: carboxymethylcellulose (CMC)
  T/C: 9 % of control
[3]
  T/C: 14 % of control
dose: 3.35 mg/kg/injection, schedule: Q01DX011 (ip), vehicle: carboxymethylcellulose (CMC)
  T/C: 9 % of control
dose: 3.45 mg/kg/injection, schedule: Q01DX011 (ip), vehicle: carboxymethylcellulose (CMC)
  T/C: 12 % of control
dose: 4.0 mg/kg/injection, schedule: Q01DX011 (ip), vehicle: methylcellulose (MC)
  T/C: 12 % of control
dose: 5.0 mg/kg/injection, schedule: Q01DX011 (ip), vehicle: carboxymethylcellulose (CMC)
  T/C: 11 % of control and 30 % of control
[4]
  T/C: 5 % of control
dose: 6.25 mg/kg/injection, schedule: Q01DX011 (ip), vehicle: methylcellulose (MC)
  T/C: 5 % of control
dose: 6.7 mg/kg/injection, schedule: Q01DX011 (ip), vehicle: carboxymethylcellulose (CMC)
  T/C: 4 % of control
dose: 6.9 mg/kg/injection, schedule: Q01DX011 (ip), vehicle: carboxymethylcellulose (CMC)
  T/C: 8 % of control
dose: 8.0 mg/kg/injection, schedule: Q01DX011 (ip), vehicle: methylcellulose (MC)
  T/C: 6 % of control
dose: 10.0 mg/kg/injection, schedule: Q01DX011 (ip), vehicle: carboxymethylcellulose (CMC)
  T/C: 4 % of control

## CSc1nc(N)nc2c1ncn2CCCl
dose: 10.0 mg/kg/injection, schedule: Q01DX011 (ip), vehicle: saline
  T/C: 65 % of control
dose: 20.0 mg/kg/injection, schedule: Q01DX011 (ip), vehicle: saline
  T/C: 70 % of control
dose: 40.0 mg/kg/injection, schedule: Q01DX011 (ip), vehicle: saline
  T/C: 73 % of control
dose: 80.0 mg/kg/injection, schedule: Q01DX011 (ip), vehicle: saline
  T/C: 74 % of control

## Cc1cnc2nc(N)nc(N)c2n1
dose: 50.0 mg/kg/injection, schedule: Q01DX011 (ip), vehicle: carboxymethylcellulose (CMC)
  T/C: 67 % of control
dose: 75.0 mg/kg/injection, schedule: Q01DX011 (ip), vehicle: carboxymethylcellulose (CMC)
  T/C: 33 % of control

## Ic1ncnc2c1ncn2C1CCCS1 (stereo unspecified)
dose: 75.0 mg/kg/injection, schedule: Q01DX011 (ip), vehicle: methylcellulose (MC)
  T/C: 150 % of control
[5]
  T/C: 95 % of control

## CSc1ncc(Br)c(Sc2nc(N)nc3nc[nH]c23)n1
[1]
  T/C: 75 % of control
[3]
  T/C: 87 % of control
[4]
  T/C: 14 % of control
dose: 12.0 mg/kg/injection, schedule: Q01DX011 (ip), vehicle: methylcellulose (MC)
  T/C: 3 % of control
[6]
  T/C: 10 % of control

## OCC1OC(n2cnc3c(Br)ncnc32)C(O)C1O (stereo unspecified)
[7]
  T/C: 74 % of control
[8]
  T/C: 63 % of control
[9]
  T/C: 49 % of control

## C[C@]12CCC(=O)C[C@H]1CC[C@@H]1[C@@H]2C(=O)C[C@@]2(C)[C@H]1CC[C@]2(C)O
dose: 10.0 mg/kg/injection, schedule: Q01DX011 (sc), vehicle: steriod suspending solution
  T/C: 85 % of control
dose: 100.0 mg/kg/injection, schedule: Q01DX011 (sc), vehicle: steriod suspending solution
  T/C: 103 % of control
dose: 200.0 mg/kg/injection, schedule: Q01DX011 (sc), vehicle: steriod suspending solution
  T/C: 105 % of control

## Cc1cccc(CSc2ncnc3nc[nH]c23)n1
dose: 12.5 mg/kg/injection, schedule: Q01DX011 (ip), vehicle: methylcellulose (MC)
  T/C: 66 % of control
dose: 25.0 mg/kg/injection, schedule: Q01DX011 (ip), vehicle: methylcellulose (MC)
  T/C: 51 % of control
dose: 50.0 mg/kg/injection, schedule: Q01DX011 (ip), vehicle: methylcellulose (MC)
  T/C: 17 % of control
dose: 100.0 mg/kg/injection, schedule: Q01DX011 (ip), vehicle: methylcellulose (MC)
  T/C: 6 % of control

## O[C@H](CN1CC1)[C@@H](O)CN1CC1
dose: 0.19 mg/kg/injection, schedule: Q01DX011 (ip), vehicle: methylcellulose (MC)
  T/C: 50 % of control
dose: 0.38 mg/kg/injection, schedule: Q01DX011 (ip), vehicle: methylcellulose (MC)
  T/C: 47 % of control
dose: 0.75 mg/kg/injection, schedule: Q01DX011 (ip), vehicle: methylcellulose (MC)
  T/C: 13 % of control
[2]
  T/C: 8 % of control

## Cc1nnc2ncnc(N)c2n1
[7]
  T/C: 46 % of control

## CC(=O)NCCSC(=O)C(=O)SCCNC(C)=O
dose: 25.0 mg/kg/injection, schedule: Q01DX011 (ip), vehicle: saline
  T/C: 62 % of control
dose: 50.0 mg/kg/injection, schedule: Q01DX011 (ip), vehicle: saline
  T/C: 65 % of control
dose: 200.0 mg/kg/injection, schedule: Q01DX011 (ip), vehicle: saline
  T/C: 42 % of control and 63 % of control

## COc1cc(/C=N/Nc2nc3c([nH]2)c(=O)n(C)c(=O)n3C)ccc1O
[7]
  T/C: 91 % of control
[8]
  T/C: 119 % of control

## COC(=O)C1=CO[C@H](C)[C@@H]2CN3CCc4c([nH]c5ccccc45)[C@@H]3C[C@H]12
dose: 9.0 mg/kg/injection, schedule: Q01DX011 (ip), vehicle: carboxymethylcellulose (CMC)
  T/C: 95 % of control
dose: 17.5 mg/kg/injection, schedule: Q01DX011 (ip), vehicle: carboxymethylcellulose (CMC)
  T/C: 92 % of control
dose: 35.0 mg/kg/injection, schedule: Q01DX011 (ip), vehicle: carboxymethylcellulose (CMC)
  T/C: 116 % of control
dose: 70.0 mg/kg/injection, schedule: Q01DX011 (ip), vehicle: carboxymethylcellulose (CMC)
  T/C: 93 % of control

## Nc1cc(C(=O)O)nc(N)n1
dose: 31.0 mg/kg/injection, schedule: Q01DX011 (ip), vehicle: methylcellulose (MC)
  T/C: 68 % of control

## O=C(CCBr)NCCCCCCNC(=O)CCBr
dose: 56.0 mg/kg/injection, schedule: Q01DX011 (ip), vehicle: methylcellulose (MC)
  T/C: 114 % of control
dose: 113.0 mg/kg/injection, schedule: Q01DX011 (ip), vehicle: methylcellulose (MC)
  T/C: 67 % of control
[5]
  T/C: 114 % of control

## CCCCCCCCCCCCCCCC[n+]1ccccc1
dose: 0.12 mg/kg/injection, schedule: Q01DX011 (ip), vehicle: water
  T/C: 89 % of control
dose: 0.25 mg/kg/injection, schedule: Q01DX011 (ip), vehicle: water
  T/C: 79 % of control
dose: 0.5 mg/kg/injection, schedule: Q01DX011 (ip), vehicle: water
  T/C: 89 % of control

## Cn1cnc(=S)c2[nH]cnc21
dose: 300.0 mg/kg/injection, schedule: Q01DX011 (ip), vehicle: carboxymethylcellulose (CMC)
  T/C: 61 % of control

## CC(=O)OCC1OC(n2cnc3c(N)ncnc32)CC1OC(C)=O (stereo unspecified)
[7]
  T/C: 55 % of control and 68 % of control
[8]
  T/C: 97 % of control and 111 % of control
[9]
  T/C: 108 % of control and 109 % of control

## CC(=O)CSc1nc(N)nc2nc[nH]c12
dose: 3.9 mg/kg/injection, schedule: Q01DX011 (ip), vehicle: methylcellulose (MC)
  T/C: 32 % of control
dose: 7.8 mg/kg/injection, schedule: Q01DX011 (ip), vehicle: methylcellulose (MC)
  T/C: 6 % of control
dose: 15.6 mg/kg/injection, schedule: Q01DX011 (ip), vehicle: methylcellulose (MC)
  T/C: 7 % of control

## Nc1ccc2cc(S(=O)(=O)O)cc(O)c2c1N=Nc1ccc(NC(=O)c2ccc(C(=O)Nc3ccc(N=Nc4c(N)ccc5cc(S(=O)(=O)O)cc(O)c45)c(S(=O)(=O)O)c3)cc2)cc1S(=O)(=O)O
dose: 3.0 mg/kg/injection, schedule: Q01DX011 (ip), vehicle: carboxymethylcellulose (CMC)
  T/C: 100 % of control
dose: 7.0 mg/kg/injection, schedule: Q01DX011 (ip), vehicle: carboxymethylcellulose (CMC)
  T/C: 45 % of control
[6]
  T/C: 56 % of control
[7]
  T/C: 48 % of control

## Clc1ccc(CSc2ncnc3c2ncn3C2CCCCO2)cc1 (stereo unspecified)
dose: 20.0 mg/kg/injection, schedule: Q01DX011 (ip), vehicle: methylcellulose (MC)
  T/C: 84 % of control
dose: 65.0 mg/kg/injection, schedule: Q01DX011 (ip), vehicle: methylcellulose (MC)
  T/C: 31 % of control

— PubChem BioAssay AID180 (DTP/NCI, 2004)
